Experimental data as given in ChEMBL document CHEMBL1145308 (Bioorg Med Chem Lett, 2006).

Assays:
[1] = target: T1, Sodium- and chloride-dependent glycine transporter 1 (Homo sapiens, UniProt P48067); assay: Inhibition of [3H]glycine uptake at GlyT1
T1 sequence (P48067 whole entry): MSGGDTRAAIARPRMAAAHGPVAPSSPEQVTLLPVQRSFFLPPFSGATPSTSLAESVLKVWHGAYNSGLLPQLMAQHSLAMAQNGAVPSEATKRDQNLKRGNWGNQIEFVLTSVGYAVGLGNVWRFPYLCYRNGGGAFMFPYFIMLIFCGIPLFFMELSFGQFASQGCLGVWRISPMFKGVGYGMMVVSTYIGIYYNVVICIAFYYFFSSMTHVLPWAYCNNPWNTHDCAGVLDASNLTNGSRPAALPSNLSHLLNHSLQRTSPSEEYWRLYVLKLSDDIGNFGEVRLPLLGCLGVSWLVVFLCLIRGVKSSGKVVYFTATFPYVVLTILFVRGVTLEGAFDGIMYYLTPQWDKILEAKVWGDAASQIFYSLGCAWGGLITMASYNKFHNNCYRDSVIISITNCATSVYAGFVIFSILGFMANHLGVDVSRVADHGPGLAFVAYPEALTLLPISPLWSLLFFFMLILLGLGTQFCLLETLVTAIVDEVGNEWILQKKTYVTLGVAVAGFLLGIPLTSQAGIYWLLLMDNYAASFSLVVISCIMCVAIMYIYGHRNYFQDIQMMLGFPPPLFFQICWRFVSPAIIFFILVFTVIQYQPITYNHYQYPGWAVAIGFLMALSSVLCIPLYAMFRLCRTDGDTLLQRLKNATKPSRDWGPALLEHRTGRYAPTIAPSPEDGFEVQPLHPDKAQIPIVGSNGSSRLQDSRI

[2] = target: T2, Sodium- and chloride-dependent glycine transporter 2 (Homo sapiens, UniProt Q9Y345); assay: Inhibition of [3H]glycine uptake at GlyT2
T2 sequence (Q9Y345 whole entry): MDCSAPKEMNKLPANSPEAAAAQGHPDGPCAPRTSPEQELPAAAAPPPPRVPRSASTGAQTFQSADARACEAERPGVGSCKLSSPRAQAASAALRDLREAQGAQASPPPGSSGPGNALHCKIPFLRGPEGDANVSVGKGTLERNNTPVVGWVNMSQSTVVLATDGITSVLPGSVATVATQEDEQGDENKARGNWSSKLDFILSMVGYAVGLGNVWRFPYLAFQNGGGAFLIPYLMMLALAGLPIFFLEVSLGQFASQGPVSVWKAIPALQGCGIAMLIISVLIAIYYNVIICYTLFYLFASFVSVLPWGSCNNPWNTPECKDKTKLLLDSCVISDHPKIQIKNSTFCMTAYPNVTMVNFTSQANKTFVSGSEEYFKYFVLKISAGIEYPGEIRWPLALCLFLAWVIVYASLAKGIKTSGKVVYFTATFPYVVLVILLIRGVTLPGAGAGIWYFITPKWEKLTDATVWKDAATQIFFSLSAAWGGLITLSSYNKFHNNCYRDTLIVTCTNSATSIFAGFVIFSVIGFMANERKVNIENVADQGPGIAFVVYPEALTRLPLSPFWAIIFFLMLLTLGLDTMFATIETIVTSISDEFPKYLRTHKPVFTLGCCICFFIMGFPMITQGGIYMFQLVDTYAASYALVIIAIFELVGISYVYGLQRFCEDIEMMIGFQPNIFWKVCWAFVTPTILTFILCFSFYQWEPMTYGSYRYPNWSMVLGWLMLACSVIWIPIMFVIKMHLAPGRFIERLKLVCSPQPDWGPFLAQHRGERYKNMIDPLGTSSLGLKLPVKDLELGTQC

[3] = in vitro; conditions: mouse, microsomes, CL
Description: Intrinsic clearance in mouse microsome

[4] = in vitro; conditions: human, microsomes, CL
Description: Intrinsic clearance in human microsome

[5] = in vitro; conditions: mouse, microsomes, Max Achievable Bioavailability
Description: Maximum achievable bioavailability in mouse microsome

[6] = in vitro; conditions: human, microsomes, Max Achievable Bioavailability
Description: Maximum achievable bioavailability in human microsome

SMILES	EC50 [1] [nM]	further results
O=C1NCC(c2ccc(F)cc2)C12CCN(C1(c3ccc(F)cc3)CCC1)CC2 (configuration not stated)	> 30000	–
Cc1cccc(C2(N3CCC4(CC3)C(=O)NCC4c3ccc(F)cc3)CCCCC2)c1 (racemic)	563	EC50 [2]: > 30000 nM
O=C1NCC(c2ccc(C(F)(F)F)cc2)C12CCN(C1(c3ccc(F)cc3)CCCCC1)CC2 (racemic)	433	–
O=C1NCC(c2ccc(F)cc2)C12CCN(C1(C3CC3)CCCCC1)CC2 (racemic)	> 30000	–
CC(C)C1(N2CCC3(CC2)C(=O)NCC3c2ccc(F)cc2)CCCCC1 (racemic)	787	–
N#Cc1cccc(C2(N3CCC4(CC3)C(=O)NCC4c3ccc(F)cc3)CCCCC2)c1 (racemic)	> 30000	–
Cc1ccc(C2CNC(=O)C23CCN(C2(c4ccc(F)cc4)CCCCC2)CC3)cc1 (racemic)	73	–
O=C1NCC(c2ccccc2)C12CCN(C1(C3CCCC3)CCCCC1)CC2 (racemic)	6290	–
O=C1NCC(c2ccccc2)C12CCN(C1(C3CC3)CCCCC1)CC2 (racemic)	> 30000	–
CCCC1CNC(=O)C12CCN(C1(c3ccc(F)cc3)CCCCC1)CC2 (racemic)	–	microsomal CLint [3]: 24 µL/min/mg; microsomal CLint [4]: 14 µL/min/mg; Fh [5]: 57%; Fh [6]: 53%
CC(C)C1(N2CCC3(CC2)C(=O)NCC3c2ccccc2)CCCCC1 (racemic)	970	–
O=C1NCC(c2ccc(F)cc2)C12CCN(C1(c3ccc(F)cc3)CCCCC1)CC2 (racemic)	–	EC50 [2]: > 30000 nM
CC(C)=CC1(N2CCC3(CC2)C(=O)NCC3c2ccccc2)CCCCC1 (racemic)	979	–
Cc1ccc(C2CNC(=O)C23CCN(C2(c4ccccc4)CCCCC2)CC3)cc1 (racemic)	139	–
Cc1ccccc1C1(N2CCC3(CC2)C(=O)NCC3c2ccc(F)cc2)CCCCC1 (racemic)	350	EC50 [2]: > 30000 nM
CCCC1CNC(=O)C12CCN(C1(c3cccs3)CCCCC1)CC2 (racemic)	229	–
O=C1NCC(c2ccccc2)C12CCN(C1(c3cccs3)CCCCC1)CC2 (racemic)	147	–
O=C1NCC(c2ccccc2)C12CCN(C1(c3ccc(OC(F)(F)F)cc3)CCCCC1)CC2 (racemic)	4560	–
O=C1NCC(c2ccccc2)C12CCN(C1(c3ccsc3)CCCCC1)CC2 (racemic)	682	–
CCCC1CNC(=O)C12CCN(C1(c3ccc(C)s3)CCCCC1)CC2 (racemic)	113	–
O=C1NCC(c2ccccc2)C12CCN(C1(C3CCCCC3)CCCCC1)CC2 (racemic)	15200	–
O=C1NCC(c2ccc(F)cc2)C12CCN(C1(c3cccc(F)c3)CCCCC1)CC2 (racemic)	393	EC50 [2]: > 30000 nM
CCC1(N2CCC3(CC2)C(=O)NCC3c2ccc(F)cc2)CCCCC1 (racemic)	1470	–
Cl.O=C1NCC(c2ccc(F)cc2)C12CCN(C1(c3ccsc3)CCCCC1)CC2 (racemic)	99	microsomal CLint [3]: 39 µL/min/mg; microsomal CLint [4]: 4 µL/min/mg; Fh [5]: 45%; Fh [6]: 78%
Cl.O=C1NCC(c2ccc(F)cc2)C12CCN(C1(c3cccs3)CCCCC1)CC2 (racemic)	–	microsomal CLint [3]: 80 µL/min/mg; microsomal CLint [4]: 9 µL/min/mg; Fh [5]: 28%; Fh [6]: 64%
Cc1cccc(C2(N3CCC4(CC3)C(=O)NCC4c3ccc(F)cc3)CCCCC2)c1 (single isomer, unassigned; diastereomer 1)	4000	–

SMILES	EC50 [1] [nM]	further results
O=C1NCC(c2ccccc2)C12CCN(C1(c3ccc(Cl)cc3)CCCCC1)CC2 (single isomer, unassigned; diastereomer 1)	–	EC50 [2]: > 30000 nM
O=C1NCC(c2ccccc2)C12CCN(C1(c3ccccc3)CCOCC1)CC2 (single isomer, unassigned; diastereomer 1)	3660	–
COc1cccc(C2(N3CCC4(CC3)C(=O)NCC4c3ccccc3)CCCCC2)c1 (single isomer, unassigned; diastereomer 1)	5610	–
N#Cc1ccc(C2(N3CCC4(CC3)C(=O)NCC4c3ccccc3)CCCCC2)cc1 (single isomer, unassigned; diastereomer 1)	> 30000	–
O=C1NCC(c2ccccc2)C12CCN(C1(c3ccccc3)CCCCC1)CC2 (single isomer, unassigned; diastereomer 1)	–	EC50 [2]: > 30000 nM
O=C1NCC(c2ccccc2)C12CCN(C1(c3ccc(C(F)(F)F)cc3)CCCCC1)CC2 (single isomer, unassigned; diastereomer 1)	1210	–
O=C1NCC(c2ccc(F)cc2)C12CCN(C1(c3ccsc3)CCCCC1)CC2 (single isomer, unassigned; diastereomer 1)	213	–
O=C1NCC(c2ccccc2)C12CCN(C1(c3cccc(F)c3)CCCCC1)CC2 (single isomer, unassigned; diastereomer 1)	423	EC50 [2]: > 30000 nM
Cc1ccc(C2(N3CCC4(CC3)C(=O)NCC4c3ccc(F)cc3)CCCCC2)cc1 (single isomer, unassigned; diastereomer 1)	1470	–
F.O=C1NCC(c2ccc(F)cc2)C12CCN(C1(c3ccc(F)cc3)CCCCC1)CC2 (single isomer, unassigned; diastereomer 1)	–	Fh [5]: 46%; EC50 [2]: > 30000 nM; Fh [6]: 67%
Cc1cccc(C2(N3CCC4(CC3)C(=O)NCC4c3ccc(F)cc3)CCCCC2)c1 (single isomer, unassigned; diastereomer 2)	949	EC50 [2]: > 30000 nM
O=C1NCC(c2ccccc2)C12CCN(C1(c3ccc(Cl)cc3)CCCCC1)CC2 (single isomer, unassigned; diastereomer 2)	–	EC50 [2]: > 30000 nM
Cc1ccc(C2(N3CCC4(CC3)C(=O)NCC4c3ccccc3)CCCCC2)cc1 (single isomer, unassigned; diastereomer 2)	480	EC50 [2]: > 30000 nM
COc1cccc(C2(N3CCC4(CC3)C(=O)NCC4c3ccccc3)CCCCC2)c1 (single isomer, unassigned; diastereomer 2)	26200	–
O=C1NCC(c2ccc(F)cc2)C12CCN(C1(c3cccc(OC(F)(F)F)c3)CCCCC1)CC2 (single isomer, unassigned; diastereomer 2)	21500	–
O=C1NCC(c2ccccc2)C12CCN(C1(c3ccccc3)CCCCC1)CC2 (single isomer, unassigned; diastereomer 2)	–	EC50 [2]: > 30000 nM
O=C1NCC(c2ccccc2)C12CCN(C1(c3cccc(F)c3)CCCCC1)CC2 (single isomer, unassigned; diastereomer 2)	684	EC50 [2]: > 30000 nM
Cc1ccc(C2(N3CCC4(CC3)C(=O)NCC4c3ccc(F)cc3)CCCCC2)cc1 (single isomer, unassigned; diastereomer 2)	419	–
O=C1NCC(c2ccccc2)C12CCN(C1(c3ccc(C(F)(F)F)cc3)CCCCC1)CC2 (single isomer, unassigned; diastereomer 2)	6970	–
O=C1NCC(c2ccccc2)C12CCN(C1(c3ccccc3)CCOCC1)CC2 (single isomer, unassigned; diastereomer 4)	525	–
Cc1ccc(C2(N3CCC4(CC3)C(=O)NCC4c3ccccc3)CCCCC2)cc1 (stereo in doubt)	284	EC50 [2]: > 30000 nM
N#Cc1ccc(C2(N3CCC4(CC3)C(=O)NCC4c3ccccc3)CCCCC2)cc1 (stereo in doubt)	16000	–
O=C1NCC(c2ccc(F)cc2)C12CCN(C1(c3cccc(OC(F)(F)F)c3)CCCCC1)CC2 (stereo in doubt)	16700	–
O=C1NCC(c2ccc(F)cc2)C12CCN(C1(c3ccsc3)CCCCC1)CC2 (stereo in doubt)	99	–
O=C1NCC(c2ccccc2)C12CCN(C1(c3ccccc3)CCOCC1)CC2 (stereo in doubt; form 1)	7290	–
O=C1NCC(c2ccccc2)C12CCN(C1(c3ccccc3)CCOCC1)CC2 (stereo in doubt; form 2)	> 30000	–
